Tested on: IL-2 stimulated pSTAT5 in PBMC CD4+ T cells
Assay: Inhibition of IL-2 stimulated pSTAT5 in human PBMC CD4+ T cells
Type: cell-based
Settings: flow cytometry
Method: The potency of test compounds for inhibition of interleukin-2 (IL-2) stimulated STAT5 phosphorylation was measured in human peripheral blood mononuclear cell (PBMC) CD4+ T cells using flow cytometry. Because IL-2 signals through JAK3, this assay provides a measure of JAK3 cellular potency in human primary cells.
Phosphorylated STAT5 was measured via flow cytometry by measuring pSTAT5 response in CD4+ T cells (Becton Disckinson, AlexaFluor 647 Mouse anti-Human STAT5 (pY694) and PE Mouse anti-Human CD4).
Human PBMCs were isolated from donors via Ficoll gradient and frozen at −80° C. Frozen PBMCs were thawed and cultured for one hour in a 37° C., 5% CO2 humidified incubator in RPMI (Life Technologies) supplemented with 10% Heat Inactivated Fetal Bovine Serum (FBS, Life Technologies), 2 mM Glutamax (Life Technologies), 25 mM HEPES (Life Technologies) and 1× Pen/Strep (Life Technologies). Cells were seeded into 2 ml deep well plates at 4e6 cells/ml (50 μl/well). […]
To determine the inhibitory potency of test compounds in response to IL-2, the median fluorescence intensity of pSTAT5 in CD4+ gated cells was measured in human PBMCs with a BD LSRII with analysis in FCS Express 6. IC50 values were determined from analysis of the inhibition curves of signal intensity vs compound concentration. Data are expressed as pIC50 (negative decadic logarithm IC50) values (mean±standard deviation).

Row | SMILES | pIC50, inhibition of IL-2 stimulated pSTAT5, compared with assay 2
1 | CN(C)C/C=C/C(=O)N1CC(C#N)(COc2cc(-c3ccc(O)c(F)c3)cc3[nH]ncc23)C1 [Compound 8, (E)-1-(4-(dimethylamino)but-2-enoyl)-3-(((6-(3-fluoro-4-hydroxyphenyl)-1Hindazol-4-yl)oxy)methyl)azetidine-3-carbonitrile] | values very similar to the ones obtained in assay 2
2 | CN(C)C/C=C/C(=O)N1CCC(C)(Oc2cc(-c3ccc(O)cc3)cc3[nH]ncc23)CC1 [Compound 9, (E)-4-(dimethylamino)-1-(4-((6-(4-hydroxyphenyl)-1H-indazol-4-yl)oxy)-4-methylpiperidin-1-yl)but-2-en-1-one] | values very similar to the ones obtained in assay 2

Reference: patent publication US10392368B2, “Pyrazolo and triazolo bicyclic compounds as JAK kinase inhibitors” (THERAVANCE BIOPHARMA R&D IP, LLC, priority 2017, dated 2019)
